Results published in patent US11230538B2, “Herbicides” (SYNGENTA PARTICIPATIONS AG, priority 2016, dated 2022).

Columns and labels:
Assay type in all cases: in vivo
[1] = system: Echinochloa crus-galli (ECHCG); assay: B2 Post-emergence herbicidal activity; parameters: key to Post-emergence herbicidal activity, ECHCG (damage score 0-5): 5=total damage to plant; 0=no damage to plant; conditions: post-emergence application, rate 1000 g/ha, evaluated after 13 days
In short: (§1)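 Injury was rated 13 days after treatment from 0 (no damage) to 5 (total damage). The spray, applied 8 days after sowing, was an aqueous solution of the active ingredient from an acetone/water (50:50) formulation with 0.5% Tween 20. Plants were kept at 24/16° C, 14 h light, 65% humidity.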

[2] = system: Lolium perenne (LOLPE); assay: B2 Post-emergence herbicidal activity; conditions: post-emergence application, rate 1000 g/ha, evaluated after 13 days
In short: as §1

[3] = system: Echinochloa crus-galli (ECHCG); assay: B1 Pre-emergence herbicidal activity; parameters: key to Pre-emergence herbicidal activity, ECHCG (damage score 0-5): 5=total damage to plant; 0=no damage to plant; conditions: pre-emergence application, rate 1000 g/ha, evaluated after 13 days
In short: (§2)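 Damage was rated 13 days after treatment, from 0 for none to 5 for total. The spray, in acetone/water 50:50 with 0.5% Tween 20, was applied pre-emergence, one day after seeds were sown in soil. Plants grew under glasshouse control at 24/16 °C, 14 h light, 65% humidity.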

[4] = system: Setaria fabenri (SETFA); assay: B2 Post-emergence herbicidal activity; parameters: key: 5=total damage to plant; 0=no damage to plant; conditions: post-emergence application, rate 1000 g/ha, evaluated after 13 days
In short: as §1

[5] = system: Triticum aestivium (TRZAW); assay: B2 Post-emergence herbicidal activity; parameters: key: 5=total damage to plant; 0=no damage to plant; conditions: post-emergence application, rate 1000 g/ha, evaluated after 13 days
In short: as §1

[6] = system: Alopecurus myosuroides (ALOMY); assay: B2 Post-emergence herbicidal activity; parameters: key: 5=total damage to plant; 0=no damage to plant; conditions: post-emergence application, rate 1000 g/ha, evaluated after 13 days
In short: as §1

[7] = system: Lolium perenne (LOLPE); assay: B1 Pre-emergence herbicidal activity; parameters: key to Pre-emergence herbicidal activity, LOLPE (damage score 0-5): 5=total damage to plant; 0=no damage to plant; conditions: pre-emergence application, rate 1000 g/ha, evaluated after 13 days
In short: as §2

[8] = system: Avena fatua (AVEFA); assay: B2 Post-emergence herbicidal activity; conditions: post-emergence application, rate 1000 g/ha, evaluated after 13 days
In short: as §1

[9] = system: Triticum aestivium (TRZAW); assay: B1 Pre-emergence herbicidal activity; parameters: key: 5=total damage to plant; 0=no damage to plant; conditions: pre-emergence application, rate 1000 g/ha, evaluated after 13 days
In short: as §2

[10] = system: Avena fatua (AVEFA); assay: B1 Pre-emergence herbicidal activity; parameters: key: 5=total damage to plant; 0=no damage to plant; conditions: pre-emergence application, rate 1000 g/ha, evaluated after 13 days
In short: as §2

[11] = system: Alopecurus myosuroides (ALOMY); assay: B1 Pre-emergence herbicidal activity; parameters: key: 5=total damage to plant; 0=no damage to plant; conditions: pre-emergence application, rate 1000 g/ha, evaluated after 13 days
In short: as §2

[12] = system: Setaria fabenr (SETFA); assay: B1 Pre-emergence herbicidal activity; parameters: key to Pre-emergence herbicidal activity, SETFA (damage score 0-5): 5=total damage to plant; 0=no damage to plant; conditions: pre-emergence application, rate 1000 g/ha, evaluated after 13 days
In short: as §2

SMILES	Post-emergence herbicidal activity, ECHCG (damage score 0-5) [1]	Post-emergence herbicidal activity, LOLPE (damage score 0-5) [2]	Pre-emergence herbicidal activity, ECHCG (damage score 0-5) [3]	Post-emergence herbicidal activity, SETFA (damage score 0-5) [4]	Post-emergence herbicidal activity, TRAZW (damage score 0-5) [5]	Post-emergence herbicidal activity, ALOMY (damage score 0-5) [6]	Pre-emergence herbicidal activity, LOLPE (damage score 0-5) [7]	Post-emergence herbicidal activity, AVEFA (damage score 0-5) [8]	Pre-emergence herbicidal activity, TRAZW (damage score 0-5) [9]	Pre-emergence herbicidal activity, AVEFA (damage score 0-5) [10]	Pre-emergence herbicidal activity, ALOMY (damage score 0-5) [11]	Pre-emergence herbicidal activity, SETFA (damage score 0-5) [12]
CC(C)=CC(=O)N(C(=O)C=C(C)C)c1ccc(-c2cncc(F)c2)nc1C(F)(F)F [Compound C38]	4	2	4	5	0	0	0	3	0	0	0	5
CC(C)(C)C(=O)Nc1ccc(-c2cncc(F)c2)nc1C(F)(F)F [Compound C34]	4	2	2	5	1	1	0	3	0	0	0	5
CC(=O)N(C(C)=O)c1ccc(-c2cncc(F)c2)nc1C(F)(F)F [Compound C5, N-acetyl-N-[6-(5-fluoro-3-pyridyl)-2-(trifluoromethyl)-3-pyridyl]acetamide]	4	4	4	5	0	1	1	4	0	3	1	5
Cc1nc(-c2cncnc2)ccc1NC(=O)C(C)C [Compound C2, 2-methyl-N-(2-methyl-6-pyrimidin-5-yl-3-pyridyl)propanamide]	5	2	3	5	1	1	1	3	0	0	0	5
COCC(=O)N(CC1CC1)c1ccc(-c2cncc(F)c2)nc1C(F)(F)F [Compound C80]	3	1	2	5	1	1	0	2	0	1	0	3
O=C(Nc1ccc(-c2cncc(F)c2)nc1C(F)(F)F)c1ccccc1 [Compound C14]	5	4	5	5	1	1	2	4	0	1	2	4
CCOC(=O)CC(=O)Nc1ccc(-c2cncc(F)c2)nc1C(F)(F)F [Compound C42]	5	2	4	5	1	0	1	4	0	2	0	4
C#CCN(C(=O)C(C)C)c1ccc(-c2cncc(F)c2)nc1C(F)(F)F [Compound C61]	4	2	3	4	0	1	0	2	0	1	0	5
O=C(Nc1ccc(-c2cncnc2)nc1C(F)(F)F)C(Cl)Cl [Compound C65]	5	3	4	5	0	0	2	4	0	3	0	3
